# Values quoted from earlier work in patent publication US20210361600A1, “METHODS FOR INDUCING CHONDROGENESIS” (THE SCRIPPS RESEARCH INSTITUTE, priority 2017, published 2021).
# What was measured:
# FLNA FC-1 fragment = details: previously validated with BKA affinity probe; cited from earlier work
# CBFβ = details: previously demonstrated; cited from earlier work
structure (smiles),measurement,setting,value
"O=C(O)c1ccccc1C(=O)Nc1ccc(-c2ccccc2)cc1 [KGN, kartogenin]",binding to FC-1 fragment of FLNA,FLNA FC-1 fragment,directly mediate the binding
same,nuclear localization of CBFβ,CBFβ,increase the nuclear localization of CBFβ
